Assay results reported in paper PMC6027433, “Synthesis, Evaluation of Cytotoxicity and Molecular Docking Studies of the 7-Acetamido Substituted 2-Aryl-5-bromo-3-trifluoroacetylindoles as Potential Inhibitors of Tubulin Polymerization” (Pharmaceuticals, 2018).

How the values were obtained:
lung cancer (A549) cells = test: MTT dose response cytotoxicity, A549; format: cell-based; conditions: Homo sapiens, 48 h
Description: (§1) Cells were seeded as described in above. […] The medium was aspirated and replaced with 200 μL fresh medium containing the dilution of the respective test compound. The test sample were added to each well and the plates were incubated for a further 48 h at 37 °C under 5% CO2 atmosphere in a humidified incubator. After this incubation period, the medium was removed and then replaced with 100 μL fresh culture medium containing MTT at a final concentration of 0.5 mg/mL. The 96-well plates were returned to the incubator and incubated for an additional 3 h. The medium was removed and the MTT crystals were solubilized in 100 μL DMSO and the absorbance was measured at 560 nm using a Labsystems Multiwell Scanning spectrophotometer (Thermo Fischer Scientific, Edenvale, South Africa).
(§2) Quantification of live and dead cells for the screening assay was performed using the ImageXpress Micro XLS Widefield Microscope and acquired images analysed using the MetaXpress software and Multi-Wavelength Cell Scoring Application Module. Acquired data was transferred to an EXCEL spreadsheet and relative cell viability was determined using quadruplicate wells for each concentration. Untreated cells were considered to have 100% cell viability (i.e., the mean OD of the untreated wells = 100% viability). Cell viabilities in other test wells were calculated relative to the untreated control and expressed as a percentage. Dose response analysis was performed using the statistical software GraphPad Prism and IC50 values calculated from the concentration-response data using a mathematical Hill function.

[1] = tested on: cervical cancer (HeLa) cells; test: MTT dose response cytotoxicity, HeLa; format: cell-based; conditions: Homo sapiens, 48 h
Description: as §1, §2

HeLa cells [2] = test: Caspase 8 and 3 activation (immunochemical), HeLa; format: cell-based, human; conditions: 24 h exposure at IC50 values
Description: (§3) Several distinctive mechanisms of cancer cell death such as apoptosis, necrosis, autophagy and cornification have been identified, and these are characterized by differences in morphology and biochemical changes. A major biochemical feature of apoptosis is the activation of caspases, which plays a central role in the morphological changes associated with apoptosis. Caspase activation was determined using immunochemical methods and the antibodies against activated caspase 8 and caspase 3. […] Activated caspase 8 can be used as a convenient indicator of involvement of the extrinsic death receptor pathway of apoptosis. Executioner caspases including caspase 3 are, in turn, activated by the initiator caspases. This protein is either partially or totally responsible for the cleavage of many key proteins such as PARP, DNA protein kinases and retinoblastoma protein [25]. […] This was true for both activated caspase 8 and 3. A more distinct increase was evident with caspase 3 albeit less pronounced than that of 4c and the increase was expected as caspase 3 is activated by initiator caspase including caspase 8, which is a later event in apoptosis. […] Prolonged treatment of the cells with compounds 5e–h for 48 h or more, for example, would probably result in significant effects. We also evaluated compound 5g for potential to induce other key apoptotic biochemical features such as phosphatidylserine (PS) translocation, cell cycle arrest and mitochondrial membrane depolarization.
(§4) Compounds 4c and 5g were selected for mechanism studies and these test compounds were reconstituted in dimethyl sulphoxide (DMSO) to give a final concentration of 40 mM. Samples were stored at 4 °C until required. […]
(§5) Quantification of live and dead cells for the assay was performed using the ImageXpress Micro XLS Widefield Microscope and acquired images analysed using the MetaXpress software and Multi-Wavelength Cell Scoring Application Module and the Cell Cycle Module. Acquired data was transferred to an EXCEL spreadsheet and data was analysed and processed.

A549 cells [3] = test: Caspase 8 and 3 activation (immunochemical), A549; format: cell-based, human; conditions: 24 h exposure at IC50 values
Description: as §3, §4, §5

HeLa cells [4] = test: Other apoptotic features (PS translocation, cell cycle arrest, mitochondrial membrane depolarization), HeLa; format: cell-based, human; conditions: after 24 h (data not included)
Description: (§6) Several distinctive mechanisms of cancer cell death such as apoptosis, necrosis, autophagy and cornification have been identified, and these are characterized by differences in morphology and biochemical changes. A major biochemical feature of apoptosis is the activation of caspases, which plays a central role in the morphological changes associated with apoptosis. Caspase activation was determined using immunochemical methods and the antibodies against activated caspase 8 and caspase 3. […] Activated caspase 8 can be used as a convenient indicator of involvement of the extrinsic death receptor pathway of apoptosis. Executioner caspases including caspase 3 are, in turn, activated by the initiator caspases. This protein is either partially or totally responsible for the cleavage of many key proteins such as PARP, DNA protein kinases and retinoblastoma protein [25]. […] This was true for both activated caspase 8 and 3. A more distinct increase was evident with caspase 3 albeit less pronounced than that of 4c and the increase was expected as caspase 3 is activated by initiator caspase including caspase 8, which is a later event in apoptosis. […] We also evaluated compound 5g for potential to induce other key apoptotic biochemical features such as phosphatidylserine (PS) translocation, cell cycle arrest and mitochondrial membrane depolarization.

A549 cells [5] = test: Other apoptotic features (PS translocation, cell cycle arrest, mitochondrial membrane depolarization), A549; format: cell-based, human; conditions: after 24 h (data not included)
Description: as §6

CC(=O)Nc1cc(Br)cc2c(C(=O)C(F)(F)F)c(-c3cccc(Cl)c3)[nH]c12 [Compound 5g, N-[5-Bromo-2-(3-chlorophenyl)-3-trifluoroacetyl-1H-indol-7-yl]acetamide]
IC50 (lung cancer (A549) cells): 2.72 ± 0.43 µM | IC50 [1]: 8.74 ± 0.94 µM | Caspase 8 and 3 activation (% change in mean integrated fluorescence intensity of the untreated control) (HeLa cells [2]): decrease | Caspase 8 and 3 activation (% change in mean integrated fluorescence intensity of the untreated control) (A549 cells [3]): expected increase | PS translocation, cell cycle arrest and mitochondrial membrane depolarization (HeLa cells [4]): failed to induce | PS translocation, cell cycle arrest and mitochondrial membrane depolarization (A549 cells [5]): failed to induce
